“And” between values parts separate entries of the source, which are not always exact repeats. Equal values may be shown once. Where a name gives a salt, the structure may show the parent alone. Read-outs that look alike come from different tables or passages of the source.
Tests used:
β2γ2L GABAARs = target: T1, β2γ2L GABAARs (Homo sapiens, UniProt P18507+P47870); assay: Two-electrode voltage clamp, recombinant β2γ2L GABAARs in Xenopus oocytes; format: cell-based; conditions: Hill slope of GABA curve
T1 construct: expressed in transfected cells; host or cells: Xenopus laevis oocytes injected with mRNA
Protocol: (§1) The expression and functional characterisation of recombinant GABAARs in Xenopus oocytes were performed as previously described. The subunit mRNA ratios for the expression of αβγ receptors were adjusted according to the β subunit isoform in that when β2-containing receptors were expressed, a 1:1:3 ratio was used, whereas when β1- or β3-containing receptors were expressed, a 10:1:10 ratio was used to minimise the expression of homomeric β1/3 homomeric receptors. To express α4β2δ receptors, a 5:1:5 ratio was used, and the pharmacological characteristics of this receptor were as described in Hartiadi et al. (2016). The injection ratio used for the expression of α1β2 and β2γ2L receptors were 1:1 and 1:3 respectively. Approximately 2 to 10 ng of mRNA mixture was injected into each oocyte. Injected oocytes were stored in ND96 storage solution supplemented with 50 μg/mL gentamycin and tetracycline at 18°C.
(§2) Two-electrode voltage clamp recordings were performed on oocytes 2–5 days post-injection at room temperature (20–25°C) using a GeneClamp 500B amplifier (ADInstruments, Sydney, NSW, Australia) or a Warner OC-725C Oocyte Clamp (Warner Instrument Corp, Hamden, CT, USA). […]
(§3) Alternatively, the modulatory effect was expressed as the fold of potentiation, as shown in Eq 3.

α1β3N265Mγ2L GABAARs = target: T2, α1β3N265Mγ2L GABAARs (Homo sapiens, UniProt P14867+P18507+P28472, N290M); assay: Two-electrode voltage clamp, mutant α1β3N265Mγ2L GABAARs in Xenopus oocytes; format: cell-based
T2 construct: expressed in transfected cells; host or cells: Xenopus laevis oocytes injected with mRNA (10:1:10)
Description: (§4) Human complementary DNAs (cDNAs) of GABAAR subunits used in this study and their corresponding subcloned vectors include: α1, β1, β2 and γ2L in pCDM8; α2 and α3 in pCDNA3.1; α4 and δ in pCDNA1/Amp; α5 in pCDNA3; β3 in pGEMHE. […] Linearised plasmid DNAs were used as templates for the synthesis of messenger RNAs (mRNAs) using the mMessage mMachine T7 transcript kit from Ambion (Austin, TX, USA). Mutations were introduced to various GABAAR subunits of interest using the QuikChange II Site-Directed Mutagenesis Kit. For the α1M236W point mutation, forward primer 5′-[…]-3′ and reverse primer 5′-[…]-3′ were used. For the β2M286W point mutation, forward primer 5′-[…]-3′ and reverse primer 5′- […]-3′ were used. For the β3N265M point mutation, forward primer 5′- […]-3′ and reverse primer 5′-[…]-3′ were used.
as §1
(§5) Two-electrode voltage clamp recordings were performed on oocytes 2–5 days post-injection at room temperature (20–25°C) using a GeneClamp 500B amplifier (ADInstruments, Sydney, NSW, Australia) or a Warner OC-725C Oocyte Clamp (Warner Instrument Corp, Hamden, CT, USA). All experiments were conducted at a holding potential of –60 mV, and data were acquired with a PowerLab 2/25, and LabChart (version 5.0.2) software (ADInstruments, Sydney, NSW, Australia). The recording microelectrodes (0.2–1.1 MΩ) were generated from capillary glass (Harvard Apparatus, Holliston, MA, USA) using a single-stage glass microelectrode puller (Narishige, Tokyo, Japan), and were filled with 3 M KCl solution.
(§6) Perfusates containing these chemicals were made up fresh before each application. […] All experiments were performed using at least two different batches of oocytes.
(§7) Prism (version 5.04; GraphPad Software, La Jolla, CA, USA) was used for data analysis. All data are presented as mean ± standard error of the means (SEM).
as §3

α1β2M286Wγ2L GABAARs = target: T3, α1β2M286Wγ2L GABAARs (Homo sapiens, UniProt P14867+P18507+P47870, M310W); assay: Two-electrode voltage clamp, mutant α1β2M286Wγ2L GABAARs in Xenopus oocytes; format: cell-based
T3 construct: expressed in transfected cells; host or cells: Xenopus laevis oocytes injected with mRNA
Description: as §4, §1, §5, §6, §7, §3

α3β2γ2L GABAARs = target: T4, α3β2γ2L GABAARs (Homo sapiens, UniProt P18507+P34903+P47870); assay: Two-electrode voltage clamp, recombinant α3β2γ2L GABAARs in Xenopus oocytes; format: cell-based; conditions: Hill slope of GABA curve
T4 construct: expressed in transfected cells; host or cells: Xenopus laevis oocytes injected with mRNA (1:1:3)
Protocol: as §1, §2, §3

α2β2γ2L GABAARs = α2β2γ2L GABAARs (Homo sapiens, UniProt P18507+P47869+P47870); conditions: Hill slope of GABA curve
Protocol: as §1, §2, §3

α5β2γ2L GABAARs = target: T5, α5β2γ2L GABAARs (Homo sapiens, UniProt P18507+P31644+P47870); assay: Two-electrode voltage clamp, recombinant α5β2γ2L GABAARs in Xenopus oocytes; format: cell-based; conditions: Hill slope of GABA curve
T5 construct: expressed in transfected cells; host or cells: Xenopus laevis oocytes injected with mRNA (1:1:3)
Protocol: as §1, §2, §3

α1β1γ2L GABAARs = target: T6, α1β1γ2L GABAARs (Homo sapiens, UniProt P14867+P18505+P18507); assay: Two-electrode voltage clamp, recombinant α1β1γ2L GABAARs in Xenopus oocytes; format: cell-based; conditions: Hill slope of GABA curve
T6 construct: expressed in transfected cells; host or cells: Xenopus laevis oocytes injected with mRNA (10:1:10)
Protocol: as §1, §2, §3

α1β3γ2L GABAARs = target: T7, α1β3γ2L GABAARs (Homo sapiens, UniProt P14867+P18507+P28472); assay: Two-electrode voltage clamp, recombinant α1β3γ2L GABAARs in Xenopus oocytes; format: cell-based
T7 construct: expressed in transfected cells; host or cells: Xenopus laevis oocytes injected with mRNA (10:1:10)
Protocol: as §1, §2, §3

α1β2γ2L GABAARs = target: T8, α1β2γ2L GABAARs (Homo sapiens, UniProt P14867+P18507+P47870); assay: Two-electrode voltage clamp, recombinant α1β2γ2L GABAARs in Xenopus oocytes; format: cell-based; conditions: for nH ± SEM: Hill slope of GABA curve, α1β2γ2L
T8 construct: expressed in transfected cells; host or cells: Xenopus laevis oocytes injected with mRNA (1:1:3)
Protocol: as §1, §5, §6, §7, §3

α1M236Wβ2γ2L GABAARs = target: T9, α1M236Wβ2γ2L GABAARs (Homo sapiens, UniProt P14867+P18507+P47870, M263W); assay: Two-electrode voltage clamp, mutant α1M236Wβ2γ2L GABAARs in Xenopus oocytes; format: cell-based; conditions: for agonist effect, mutant vs wild-type: p > 0.05, n = 5
T9 construct: expressed in transfected cells; host or cells: Xenopus laevis oocytes injected with mRNA
Description: as §4, §1, §5, §6, §7, §3

α4β2δ GABAARs = target: T10, α4β2δ GABAARs (Homo sapiens, UniProt O14764+P47870+P48169); assay: Two-electrode voltage clamp, recombinant α4β2δ GABAARs in Xenopus oocytes; format: cell-based; conditions: for nH ± SEM: Hill slope of GABA curve, α4β2δ
T10 construct: expressed in transfected cells; host or cells: Xenopus laevis oocytes injected with mRNA (5:1:5)
Protocol: as §1, §5, §6, §7, §3

[1] = tested on: α1β2, β2γ2L, αxβ2γ2L (x = 1, 2, 3 or 5), α1βxγ2L (x = 1, 2 or 3) and α4β2δ GABAARs; assay: Kavain potentiation compared across GABAAR subtypes (two-electrode voltage clamp); format: cell-based, human; conditions: 300 μM kavain, GABA EC3-7 (EC30 at α4β2δ), Tukey's test
Protocol: as §1, §2
Alternatively, the modulatory effect was expressed as the fold of potentiation, as shown in Eq 3. […]

NCCCC(=O)O [GABA, γ-Aminobutyric acid]
nH ± SEM (β2γ2L GABAARs): 0.63 ± 0.034
nH ± SEM (α1β3N265Mγ2L GABAARs; Hill slope of GABA curve, α1β3N265Mγ2L): 1.4 ± 0.083
nH ± SEM (α1β2M286Wγ2L GABAARs; Hill slope of GABA curve, α1β2M286Wγ2L): 1.1 ± 0.036
nH ± SEM (α3β2γ2L GABAARs): 1.2 ± 0.054
nH ± SEM (α2β2γ2L GABAARs): 1.4 ± 0.041
nH ± SEM (α5β2γ2L GABAARs): 1.0 ± 0.078
nH ± SEM (α1β1γ2L GABAARs): 1.1 ± 0.059
nH ± SEM (α1β3γ2L GABAARs; Hill slope of GABA curve, α1β3γ2L): 1.2 ± 0.070
nH ± SEM (α1β2γ2L GABAARs): 0.99 ± 0.062
nH ± SEM (α1β2γ2L GABAARs; + 300 μM kavain): 0.75 ± 0.026
nH ± SEM (α1M236Wβ2γ2L GABAARs; Hill slope of GABA curve, mutant printed as α1M286Wβ2γ2L in table): 0.80 ± 0.053
nH ± SEM (α4β2δ GABAARs): 0.70 ± 0.095
nH ± SEM (α4β2δ GABAARs; + 300 μM kavain): 0.59 ± 0.11

CN1C(=O)CN=C(c2ccccc2)c2cc(Cl)ccc21 [diazepam]
enhancement of GABA current, normalised to 10 μM GABA responses (α1β2γ2L GABAARs): 260 ± 4.2%
flumazenil sensitivity of diazepam enhancement (α1β2γ2L GABAARs): flumazenil-sensitive

CCOC(=O)c1cncn1[C@H](C)c1ccccc1 [etomidate, Etomidate hydrochloride (HCl)]
modulation (3 μM) and activation (30 μM) of the point-mutated receptors (α1β3N265Mγ2L GABAARs; data not shown): did not modulate (at 3 μM) nor activate (at 30 μM)
etomidate sensitivity (modulatory and agonist effects) (α1β2M286Wγ2L GABAARs; data not shown): abolished
enhancement of GABA EC3 responses, % of maximal GABA responses (α1β2γ2L GABAARs): 53 ± 2.6% and 45 ± 3.1%
modulatory effect on GABA EC3 (1 μM) responses, mutant vs wild-type (α1M236Wβ2γ2L GABAARs; 3 μM etomidate, p < 0.0001, n = 5): significantly attenuated
agonist effect, mutant vs wild-type (α1M236Wβ2γ2L GABAARs; 30 μM etomidate): not significantly different from wild-type receptors

CCOC(=O)c1ncn2c1CN(C)C(=O)c1cc(F)ccc1-2 [flumazenil]
effect of flumazenil alone on GABA responses (α1β2γ2L GABAARs; 10 μM GABA + 10 μM flumazenil): did not alter GABA responses

CC(C)c1cccc(C(C)C)c1O [propofol]
propofol activity at the point-mutated receptors (α1β3N265Mγ2L GABAARs): Pronounced attenuation
receptor modulation in the presence of GABA EC3 (1 μM), mutant vs wild-type (α1β2M286Wγ2L GABAARs; 10 μM propofol, p < 0.001): significantly diminished
direct activation, mutant vs wild-type (α1β2M286Wγ2L GABAARs; 100 μM propofol, p > 0.05): unaffected
elicited current, % of the maximal propofol responses (α1β2γ2L GABAARs): 91 ± 1.5%
enhancement of GABA EC3 responses, % of the maximal GABA responses (α1β2γ2L GABAARs): 45 ± 3.5% and 50 ± 4.8%
modulatory effect on GABA EC3 (1 μM) responses, mutant vs wild-type (α1M236Wβ2γ2L GABAARs; 10 μM propofol, p < 0.01, n = 5): significantly attenuated
agonist effect, mutant vs wild-type (α1M236Wβ2γ2L GABAARs; 100 μM propofol): not significantly different from wild-type receptors

DL-kavain
subtype selectivity of potentiation [1]: no significant subtype selectivity
current elicited by kavain alone, % of GABA EC3 responses (α1β3N265Mγ2L GABAARs; 300 μM kavain): 3.3 ± 1.0%
kavain modulation of GABA EC3 responses (α1β3N265Mγ2L GABAARs; GABA EC3 + 300 μM kavain, p < 0.001 vs α1β3γ2L): 110 ± 14%
current elicited by kavain alone, % of the GABA EC3 responses (α1β2M286Wγ2L GABAARs; 300 μM kavain, p < 0.0001 vs wild-type): 96 ± 5.8%
modulatory effect on GABA EC3-elicited responses, % of GABA EC3 (α1β2M286Wγ2L GABAARs; GABA EC3 + 300 μM kavain, p > 0.05 vs α1β2γ2L): 270 ± 8.7%
kavain modulation of GABA EC3 responses (α1β3γ2L GABAARs; GABA EC3 + 300 μM kavain): 260 ± 18%
GABA-enhancing action of kavain in the presence of flumazenil (α1β2γ2L GABAARs; 10 μM GABA + 300 μM kavain + 10 μM flumazenil): unaffected in the presence of flumazenil
enhancement of GABA current, normalised to 10 μM GABA responses (α1β2γ2L GABAARs; 10 μM GABA + 300 μM kavain, n = 5): 260 ± 11%
intrinsic agonist activity, currents relative to the 10 mM GABA responses (α1β2γ2L GABAARs; 300 μM kavain alone, n = 5): < 1%
enhancement of GABA-elicited responses (α1β2γ2L GABAARs; 300 μM kavain, GABA EC3 (10 μM), n = 6): 170 ± 23%
enhancement depending on GABA concentration (α1β2γ2L GABAARs; 300 μM kavain, GABA concentration-response curve): modest enhancement at GABA concentrations below EC45
current elicited by kavain alone, % of the GABA EC3 responses (α1β2γ2L GABAARs; 300 μM kavain, wild-type, n = 4): 15 ± 3.6%
potentiation by co-application, % of GABA EC3 responses (α1β2γ2L GABAARs; GABA EC3 + 300 μM kavain, n = 4, kavain-elicited current not deducted): 250 ± 7.8%
current elicited by kavain alone, % of the GABA EC3 responses (α1M236Wβ2γ2L GABAARs; 300 μM kavain, n = 6): approximately 63 ± 5.2%
potentiation by co-application, % of GABA EC3 responses (α1M236Wβ2γ2L GABAARs; GABA EC3 + 300 μM kavain, n = 6, kavain-elicited current not deducted): 220 ± 11%
increase of the maximal response evoked by GABA (α4β2δ GABAARs; 300 μM kavain, p < 0.0001): two fold
